# Measurements published in article PMC10283009, “Cellular photo(geno)toxicity of gefitinib after biotransformation” (Frontiers in Pharmacology, 2023).
# “Also recorded” adds a separate entry of the source. Structures can show the parent of a compound that is named as a salt. Where two headings read alike, the source gives them in different places.
# Assays:
# [1] = test system: caspase-3/7 activity in HaCaT cells; assay: Caspase 3/7 activity assay (Apo-ONE); format: cell-based, human; details: after UVA 5 J/cm^2, two concentrations up to about the IC50 under UVA
# Description: HaCaT cells were seeded in 96-well plates at a concentration of 2 × 10^5 cell/mL. The next day, cells, in fresh DMEM medium without phenol red, were treated with the compounds at two different concentrations representing 100% and 50% of cell viability according to NRU dose-response curves. After 1 h incubation at 37°C, one plate was irradiated with UVA light (5 J/cm^2) and the other one was kept in dark conditions. Later, plates were incubated for another 24 h at 37°C with fresh DMEM medium. Then, samples were analyzed by the Apo-ONE Homogeneous Caspase-3/7 assay according to the manufacturer’s instructions. Immediately after, the fluorescence was monitored at 0 h and 4 h after the addition of the substrate using Synergy H1 multi-mode microplate reader (excitation at 499 nm and emission at 521 nm). The data was subjected to statistical analysis using the Two-way ANOVA (Analysis of Variance).
# [2] = Photosensitized lipid peroxidation (TBARS assay); details: compound 100 µM, linoleic acid 1 mM in PBS, UVA 15 J/cm^2 vs dark
# [3] = Fluorescence emission spectra in different media; format: physicochemical; design: unit not given here; details: excitation at 320 nm
# Description: (§1) Absorption spectra were recorded in a JASCO V-760 spectrophotometer using 10 × 10 mm^2 quartz cuvettes at room temperature. […] Fluorescence spectra (λ exc = 320 nm) were recorded using a Synergy H1 multi-mode microplate reader.
# HaCaT cells [4] = assay: cells; details: for Phototoxicity classification according to OECD 432 Guide: PIF <2 no phototoxicity, 2-5 probable phototoxicity, >5 phototoxicity, HaCaT NRU
# Description: Chlorpromazine (CPZ) and sodium dodecyl sulfate (SDS) served as the positive phototoxic and negative non-phototoxic controls, respectively. […] Therefore, the phototoxicity behavior of the metabolites was studied in parallel with the parent drug.
# Concisely, for each compound, two 96-well plates were seeded at a density of 2.0 × 10^4 cells/well. […] All plates were incubated for 1 h in dark conditions. Then, for each sample, in the presence of ice, one plate was irradiated with a non-cytotoxic dose of 5 J/cm^2 UVA (UVA Light), whereas the other was kept in a dark box (Dark). Next, drug solutions were replaced with fresh DMEM medium, and plates were further incubated overnight. Next day, neutral red solution (50 μg/mL) was added into the wells and incubated for 2 h at 37°C. […] Lastly, the absorbance of the plates was read at 550 nm on a Synergy H1 microplate reader. […] Afterwards, photoirritation factor (PIF) values were calculated using the following equation: PIF=IC50 Dark / IC50 UVA Light
# HaCaT cells [5] = assay: Alkaline comet assay (nuclear DNA damage and repair); format: cell-based; details: 100 µM
# Description: The comet assay (single-cell gel electrophoresis) was performed as already detailed in [Garcia-Lainez et al. (2018)] in order to detect both single and double strand breaks and alkaline labile sites on nuclear DNA. […] The reference photogenotoxic control of this assay was CPZ (10 μM). Afterwards, one plate was irradiated under 2 J/cm^2 UVA light dose (4 J/cm^2 for DMT-GFT and DMOR-GFT) while the other one was kept in darkness as the negative control. Later, both irradiated and non-irradiated cells were detached from the plates and 100 µL of cell suspension was mixed with 100 µL 1% low melting point agarose solution and loaded onto FLARE® slides. Then, slides were incubated on ice to allow drop jellification. Finally, slides were embedded in a box with lysis buffer to initiate the lysis of cells and incubated overnight at 4°C. Next day, slides were placed in electrophoresis tank filled with 1 L of cold alkaline electrophoresis buffer (0.2 M NaOH, 1 mM EDTA in distilled water and pH ≥ 13). The electrophoresis was run at 21 V (1 V/cm) for 30 min and kept at 4°C. Then, slides were washed twice with MilliQ water and DNA fixation accomplished by a serial dehydration with 70% ethanol and 100% ethanol solutions during 5 min and followed by drying for 2 h at 37°C. Nuclear DNA was stained with a SYBR Gold® bath (1:10,000 in Tris-EDTA buffer) for 30 min at 4°C and slides were kept in darkness until its visualization. Comets (nucleoids and tails) were visualized using a fluorescence microscope (Leica DMI 4000B). DNA damage was quantified by counting and analyzing at least 100 DNA comets. Finally, total comet score (TCS) was obtained with the classification of six DNA damage types ([Møller, 2006]) applying the formula: Cl. 0×0+Cl. 1×1+Cl. 2×2+Cl. 3×3+[Cl. 4×4+Cl. 5×5+Cl. 6×6]/6
# Where Cl. is the class of DNA damage according to the visual scoring.
# The results are expressed in 1–100 arbitrary units, where class 0 comets are comets with no DNA damage while class 6 comets represent comets with maximum DNA damage. Two-way ANOVA (Analysis of Variance) method was used for the statistical analysis of the data.
# [6] = Fluorescence quantum yield of compounds internalized in HaCaT cells; format: physicochemical; details: inside HaCaT cells, excitation at 320 nm, anthracene as standard
# Description: as §1
# In parallel, fluorescence quantum yield (ΦF) of the internalized compounds were also determined, by comparison with anthracene as standard (Φ F = 0.27 in ethanol). […]
# HaCaT cells [7] = assay: Lactate dehydrogenase release assay (CytoTox-ONE); format: cell-based, human; details: after UVA 5 J/cm^2, concentration near the IC50
# Description: Lactate Dehydrogenase activity assay was performed according to the manufacturer´s protocol. Briefly, HaCaT cells were seeded in 96-well plates (2 × 10^5 cell/mL) and incubated for 24 h. Then, after replacement of the medium with fresh no-phenol red DMEM, cells were incubated for 1 h with the compounds in two different concentrations representing 100% and 50% of cell viability according to NRU dose-response curves. Next, one plate was irradiated with UVA light (5 J/cm^2) while the other one was kept in dark conditions. Next day, samples were analyzed by CytoTox-ONE™ Homogeneous Membrane Integrity Assay and a lysis solution (9% weight/volume solution of Triton X-100 in water) was used to determine the maximum amount of LDH present. The fluorescence was measured 10 min after the addition of the substrate using Synergy H1 multi-mode microplate reader (excitation at 560 nm and emission at 590 nm). The percent of LDH release was determined following the following equation: % LDH release=Experimental LDH release/Maximum LDH release x 100
# [8] = target: T1, human serum albumin (HSA) (Homo sapiens, UniProt P02768); assay: Photoinduced protein oxidation assay (carbonyl content, DNPH derivatization); details: compound 100 µM, HSA 5 mg/mL in PBS, UVA 15 J/cm^2
# T1 sequence (P02768 25-609): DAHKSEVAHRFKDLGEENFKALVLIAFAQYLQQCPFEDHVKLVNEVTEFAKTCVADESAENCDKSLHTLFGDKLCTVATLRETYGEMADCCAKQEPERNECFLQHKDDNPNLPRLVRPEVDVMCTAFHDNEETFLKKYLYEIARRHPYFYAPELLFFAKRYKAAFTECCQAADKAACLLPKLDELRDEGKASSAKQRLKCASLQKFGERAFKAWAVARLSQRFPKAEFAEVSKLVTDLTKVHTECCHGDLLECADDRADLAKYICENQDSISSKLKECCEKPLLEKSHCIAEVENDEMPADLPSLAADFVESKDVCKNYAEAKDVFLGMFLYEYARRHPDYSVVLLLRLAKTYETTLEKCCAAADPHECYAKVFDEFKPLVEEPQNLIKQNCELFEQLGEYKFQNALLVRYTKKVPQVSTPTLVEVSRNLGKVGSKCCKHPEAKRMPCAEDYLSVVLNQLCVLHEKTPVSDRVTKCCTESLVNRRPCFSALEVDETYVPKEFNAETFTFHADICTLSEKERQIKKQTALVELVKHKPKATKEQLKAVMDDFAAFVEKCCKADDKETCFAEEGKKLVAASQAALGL
# [9] = Triplet excited-state quenching by DMBA (laser flash photolysis); format: physicochemical; details: deaerated acetonitrile, 355 nm laser excitation, DMBA 0.1-10 mM
# Description: A pulsed Nd:YAG L52137 V LOTIS TII laser (Sp Lotis Tii, Minsk, Belarus) was used for the excitation at 355 nm. The single pulses were ∼10 ns of duration, and the energy was ∼12 mJ/pulse. Laser flash photolysis (LFP) equipment consisted of a pulsed laser, a 77250 Oriel monochromator, and an oscilloscope DP04054 Tektronix. The output signal from the oscilloscope was transferred to a personal computer for processing. The DMOR-GFT metabolite was dissolved in acetonitrile up to an absorbance of 0.3 at 355 nm. Solutions were deaerated by bubbling nitrogen through the solution during 15 min. The rate constant of triplet excited-state quenching by 1,4-dihydro-1,2-dimethylbenzoic acid (DMBA) was determined using the Stern–Volmer Equation: 1/τ=1/τq+kq DMBA
# Where τ and τ q are the lifetime of transient species in the presence and absence of DMBA, respectively. Concentrations between 0.1 and 10 mM were used for DMBA. This compound was prepared through Birch reduction following standard procedures ([Andreu et al., 2011]).
# [10] = Singlet oxygen production by time-resolved NIR emission at 1,270 nm; format: physicochemical
# [11] = target: T1, human serum albumin (HSA); design: purchased Sigma-Aldrich (Madrid, Spain); method as in Tamarit et al., 2021; details: GFT 100 µM, HSA 5 mg/mL in PBS, UVA 15 J/cm^2; carbonyl content value of GFT taken from the literature; ref Tamarit et al., 2021; cited from earlier work
# [12] = design: method as in PMID 30069771; details: standard, in ethanol; ref [26]; cited from earlier work
# [13] = in presence of calf thymus DNA (ctDNA)
# [14] = in presence of methyl linoleate (ML)
# [15] = Homo sapiens, HaCaT, 1 h, read-out: IC50 dark
# [16] = Homo sapiens, HaCaT, light or radiation study, 1 h, read-out: IC50 UVA light
# [17] = PIF = IC50 Dark / IC50 UVA Light, HaCaT, UVA 5 J/cm^2
smiles,measurement,setting,value
"Oc1cc2ncnc(Nc3ccc(F)c(Cl)c3)c2cc1OCCCN1CCOCC1 [DMT-GFT, O-Demethyl gefitinib]",Caspase-3/7 activity (relative change),[1],caspase-3/7 activity was similar between the concentration of 2.5 µM and the concentration corresponding to IC50
same,Photosensitized lipid peroxidation (TBARS content),[2],neither GFT nor DMT-GFT showed detectable changes
same,Emission (λmax),[3]; [13],450
same,Emission (λmax),[3]; [14],384
same,IC50,HaCaT cells [4]; [15],34 ± 3 µM
same,IC50,HaCaT cells [4]; [16],5 ± 0.1 µM
same,Phototoxicity classification according to OECD 432 Guide,HaCaT cells [4],can still be considered phototoxic
same,Photoirritant factor (PIF),HaCaT cells [4]; [17],7
same,Percentage of DNA damage (comet assay),HaCaT cells [5]; UVA light 10 min (4 J/cm^2),around 54%
same,Fluorescence quantum yield (ΦF),[6],0.04
same,LDH release,HaCaT cells [7],did not show any effect on the LDH release
same,Protein photooxidation (carbonyl content of HSA),[8],did not exhibit any lipid or protein oxidative damage
"COc1cc2ncnc(Nc3ccc(O)c(Cl)c3)c2cc1OCCCN1CCOCC1 [DF-GFT, 4-Defluoro-4-hydroxy gefitinib]",IC50,HaCaT cells [4]; [15],1020 µM
same,IC50,HaCaT cells [4]; [16],1100 µM
same,Phototoxicity classification according to OECD 432 Guide,HaCaT cells [4],non-phototoxic; also recorded: negligible phototoxic activity
same,Photoirritant factor (PIF),HaCaT cells [4]; [17],~1
"COc1cc2ncnc(Nc3ccc(F)c(Cl)c3)c2cc1O [DMOR-GFT, O-Demorpholinopropyl gefitinib]",Caspase-3/7 activity (relative change),[1],concentration dependent activation of caspase-3/7
same,Rate constant (kq) of triplet excited state quenching by DMBA,[9],1.96 M^−1·s^−1 × 10^9 M^−1·s^−1
same,Photosensitized lipid peroxidation (TBARS content),[2],remarkable enhancement in photosensitized lipid peroxidation comparable to the reference
same,Emission (λmax),[3]; in presence of HSA,432
same,Emission (λmax),[3]; [13],448
same,Emission (λmax),[3]; [14],384
same,IC50,HaCaT cells [4]; [15],144 ± 6 µM
same,IC50,HaCaT cells [4]; [16],3 ± 0.6 µM
same,Photoirritant factor (PIF),HaCaT cells [4]; [17],48
same,Percentage of DNA damage (comet assay),HaCaT cells [5]; UVA light 5 min (2 J/cm^2),did not promote DNA damage
same,Percentage of DNA damage (comet assay),HaCaT cells [5]; UVA light 10 min (4 J/cm^2),around 45%
same,Fluorescence quantum yield (ΦF),[6],0.1
same,Singlet oxygen quantum yield (Φ Δ),[10],≤ 0.1
same,Protein photooxidation (carbonyl content of HSA),[8],significant oxidative effect towards HSA
"CN(C)CCCN1c2ccccc2Sc2ccc(Cl)cc21 [CPZ, Chlorpromazine hydrochloride, reference compound]",IC50,HaCaT cells [4]; [15],80 ± 17 µM
same,IC50,HaCaT cells [4]; [16],4 ± 0.9 µM
same,Photoirritant factor (PIF),HaCaT cells [4]; [17],20
"COc1cc2ncnc(Nc3ccc(F)c(Cl)c3)c2cc1OCCCN1CCOCC1 [GFT, Gefitinib hydrochloride, reference compound]",Protein photooxidation (carbonyl content of HSA),[11],significant oxidative effect towards HSA
same,Percentage of DNA damage (comet assay),HaCaT cells [5]; UVA light 5 min (2 J/cm^2),around 72%
same,Fluorescence quantum yield (ΦF),[6],0.07
same,LDH release,HaCaT cells [7],small but significant percent of LDH-release
same,Singlet oxygen quantum yield (Φ Δ),[10],≤ 0.1
"CCCCCCCCCCCCOS(=O)(=O)[O-].[Na+] [SDS, sodium dodecyl sulfate, reference compound]",Photoirritant factor (PIF),HaCaT cells [4],1
same,IC50,"HaCaT cells [4]; read-out: IC50 UVA light, HaCaT, neutral red uptake, UVA 5 J/cm^2, 1 h incubation with compound",136 ± 23 µM
same,IC50,"HaCaT cells [4]; read-out: IC50 dark, HaCaT, neutral red uptake, kept in dark, 1 h incubation with compound",133 ± 31 µM
c1ccc2cc3ccccc3cc2c1 [anthracene],Fluorescence quantum yield (ΦF),[12],0.27
